Assay results as given in patent US20250084063A1 (Incyte Corporation, priority 2023, published 2025).

Assays:
Format in all cases: cell-based
[1] = biological target: T1, MRGPRX2 (Homo sapiens, UniProt Q96LB1); experiment: MRGPRX2 FLIPR calcium mobilization assay; set-up: host or cells: CHO-K1; details: CHO-K1 cells stably expressing human MRGPRX2; Ca2+ release, agonist Cortistatin-14 at EC80
T1 sequence (Q96LB1 1-330): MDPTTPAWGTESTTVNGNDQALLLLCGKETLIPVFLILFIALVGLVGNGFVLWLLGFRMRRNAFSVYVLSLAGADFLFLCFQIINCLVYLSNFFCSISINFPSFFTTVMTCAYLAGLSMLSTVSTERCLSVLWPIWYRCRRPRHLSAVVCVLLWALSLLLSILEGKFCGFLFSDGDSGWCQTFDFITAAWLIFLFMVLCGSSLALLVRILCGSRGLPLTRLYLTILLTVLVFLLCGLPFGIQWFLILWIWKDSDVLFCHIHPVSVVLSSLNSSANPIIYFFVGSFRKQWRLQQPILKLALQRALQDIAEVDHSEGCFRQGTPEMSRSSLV
Outline: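 CHO-K1 cells stably expressing human MRGPRX2, loaded with Calcium 6 dye, pre-incubated 30 min at room temperature with test compound in HBSS/20 mM HEPES pH 7.4. Then challenged with Cortistatin-14 at EC80; baseline-adjusted peak fluorescence over 110 s fitted to a Hill equation for IC50.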

[2] = biological target: T1, MRGPRX2; experiment: MRGPRX2 IP1 HTRF assay; set-up: host or cells: CHO-K1; details: CHO-K1 cells stably expressing human MRGPRX2; IP1 accumulation, agonist Cortistatin 14 1 μM
[3] = biological target: T1, MRGPRX2; experiment: MRGPRX2 β-Arrestin assay; set-up: host or cells: PathHunter CHO-K1; details: PathHunter CHO-K1 MRGPRX2 β-Arrestin cell line; agonist Cortistatin 14 0.25 μM
Outline: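 PathHunter CHO-K1 cells expressing ProLink-tagged MRGPRX2 and enzyme-acceptor-tagged β-arrestin were preincubated with serially diluted compound 1 h at 37 °C, then stimulated with 0.25 μM cortistatin 14 (final) for 90 min. β-arrestin recruitment was read by luminescence; IC50 from 3- or 4-parameter Hill fits normalised to DMSO and reference antagonist controls.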

Row | SMILES | IC50 [1] [nM] | IC50 [2] [nM] | IC50 [3] [nM]
1 | NS(=O)(=O)N1CC(CNc2cc(C(F)(F)F)nc3ccc(Cl)cc23)(c2ccc(F)cn2)C1 [Example 46, 3-(((6-Chloro-2-(trifluoromethyl)quinolin-4-yl)amino)methyl)-3-(5-fluoropyridin-2-yl)azetidine-1-sulfonamide] | 0.1 to 100 | 0.1 to 100 | 0.1 to 100
2 | NC(=O)N1CC(CNc2cc(C(F)(F)F)nc3ccc(Cl)cc23)(c2ccc(F)cn2)C1 [Example 47, 3-(((6-Chloro-2-(trifluoromethyl)quinolin-4-yl)amino)methyl)-3-(5-fluoropyridin-2-yl)azetidine-1-carboxamide] | 0.1 to 100 | 0.1 to 100 | 0.1 to 100
3 | CNC(=O)N1CCC(CNc2cc(C(F)(F)F)nc3ccc(Cl)cc23)(c2ccc(F)cn2)C1 (stereo not drawn) [Example 49, 3-(((6-Chloro-2-(trifluoromethyl)quinolin-4-yl)amino)methyl)-3-(5-fluoropyridin-2-yl)-N-methylpyrrolidine-1-carboxamide] | 0.1 to 100 | 0.1 to 100 | 0.1 to 100
4 | CNC(=O)N1CC(CNc2cc(C(F)(F)F)nc3ccc(Cl)cc23)(n2cccn2)C1 [Example 52, 3-(((6-Chloro-2-(trifluoromethyl)quinolin-4-yl)amino)methyl)-N-methyl-3-(1H-pyrazol-1-yl)azetidine-1-carboxamide] | 0.1 to 100 | 0.1 to 100 | 0.1 to 100
5 | Fc1ccc(C2(CNc3cc(C(F)(F)F)nc4ccc(Cl)cc34)COCCO2)cc1 (stereo not drawn) [Example 53, 6-Chloro-N-((2-(4-fluorophenyl)-1,4-dioxan-2-yl)methyl)-2-(trifluoromethyl)quinolin-4-amine] | 0.1 to 100 | 0.1 to 100 | 0.1 to 100
6 | NC(=O)N1CC(CNc2cc(C(F)(F)F)nc3cc(F)ccc23)(c2ccc(F)cn2)C1 [Example 59, 3-(((7-Fluoro-2-(trifluoromethyl)quinolin-4-yl)amino)methyl)-3-(5-fluoropyridin-2-yl)azetidine-1-carboxamide] | 0.1 to 100 | 100 to 1000 | 100 to 1000
7 | Nc1ccc(N2CCC(CNc3cc(C(F)(F)F)nc4ccc(Cl)cc34)(c3ccccc3)CC2)nn1 [Example 78, N-((1-(6-Aminopyridazin-3-yl)-4-phenylpiperidin-4-yl)methyl)-6-chloro-2-(trifluoromethyl)quinolin-4-amine] | 0.1 to 100 | 0.1 to 100 | 0.1 to 100
8 | NS(=O)(=O)N1CC(CNc2cc(C(F)(F)F)nc3ccc(Cl)cc23)(c2ccc3ccccc3n2)C1 [Example 80, 3-(((6-Chloro-2-(trifluoromethyl)quinolin-4-yl)amino)methyl)-3-(quinolin-2-yl)azetidine-1-sulfonamide] | 0.1 to 100 | 100 to 1000 | 100 to 1000
9 | Cc1csc(C2(CNc3cc(C(F)(F)F)nc4ccc(Cl)cc34)CN(S(N)(=O)=O)C2)n1 [Example 81, 3-(((6-Chloro-2-(trifluoromethyl)quinolin-4-yl)amino)methyl)-3-(4-methylthiazol-2-yl)azetidine-1-sulfonamide] | 0.1 to 100 | 100 to 1000 | 0.1 to 100
10 | Cn1ncc2cc(C3(CNc4cc(C(F)(F)F)nc5ccc(Cl)cc45)CN(S(N)(=O)=O)C3)ccc21 [Example 82, 3-(((6-Chloro-2-(trifluoromethyl)quinolin-4-yl)amino)methyl)-3-(1-methyl-1H-indazol-5-yl)azetidine-1-sulfonamide] | 0.1 to 100 | 100 to 1000 | 0.1 to 100
11 | CNC(=O)N1CC(CNc2cc(C(F)(F)F)nc3ccc(Cl)cc23)(c2ccc3cnn(C)c3c2)C1 [Example 83] | 0.1 to 100 | 100 to 1000 | 100 to 1000

Other lines, results leading:

Row | IC50 [1] [nM] | IC50 [2] [nM] | IC50 [3] [nM] | SMILES
12 | 0.1 to 100 | 0.1 to 100 | 0.1 to 100 | NC(=O)N1CC(CNc2cc(C(F)(F)F)nc3ccc(F)cc23)(c2ccc(F)cc2)C1 [Example 25, 3-(((6-Fluoro-2-(trifluoromethyl)quinolin-4-yl)amino)methyl)-3-(4-fluorophenyl)azetidine-1-carboxamide]
13 | 0.1 to 100 | 0.1 to 100 | 0.1 to 100 | [2H]C([2H])([2H])NC(=O)N1CC(CNc2cc(C(F)(F)F)nc3ccc(Cl)cc23)(n2cc(F)cn2)C1 [Example 26, 3-(((6-Chloro-2-(trifluoromethyl)quinolin-4-yl)amino)methyl)-3-(4-fluoro-1H-pyrazol-1-yl)-N-(methyl-d3)azetidine-1-carboxamide]
14 | 0.1 to 100 | 0.1 to 100 | 0.1 to 100 | O=C(NC1CC1)N1CC(CNc2cc(C(F)(F)F)nc3ccc(Cl)cc23)(n2cc(F)cn2)C1 [Example 27, 3-(((6-Chloro-2-(trifluoromethyl)quinolin-4-yl)amino)methyl)-N-cyclopropyl-3-(4-fluoro-1H-pyrazol-1-yl)azetidine-1-carboxamide]
15 | 0.1 to 100 | 0.1 to 100 | 0.1 to 100 | NC(=O)N1CC(CNc2cc(C(F)(F)F)nc3ccc(Cl)cc23)(n2cc(F)cn2)C1 [Example 28, 3-(((6-Chloro-2-(trifluoromethyl)quinolin-4-yl)amino)methyl)-3-(4-fluoro-1H-pyrazol-1-yl)azetidine-1-carboxamide]
16 | 0.1 to 100 | 0.1 to 100 | 0.1 to 100 | NS(=O)(=O)N1CC(CNc2cc(C(F)(F)F)nc3ccc(Cl)cc23)(c2ccc(Cl)cn2)C1 [Example 29, 3-(((6-Chloro-2-(trifluoromethyl)quinolin-4-yl)amino)methyl)-3-(5-chloropyridin-2-yl)azetidine-1-sulfonamide]
17 | 0.1 to 100 | 0.1 to 100 | 0.1 to 100 | [2H]C([2H])([2H])NC(=O)N1CC(CNc2cc(C(F)(F)F)nc3ccc(Cl)cc23)(n2cc(Cl)cn2)C1 [Example 30, 3-(4-Chloro-1H-pyrazol-1-yl)-3-(((6-chloro-2-(trifluoromethyl)quinolin-4-yl)amino)methyl)-N-(methyl-d3)azetidine-1-carboxamide]
18 | 0.1 to 100 | 0.1 to 100 | 0.1 to 100 | NS(=O)(=O)N1CC(CNc2cc(C(F)(F)F)nc3ccc(Cl)cc23)(c2cccc(F)c2)C1 [Example 31, 3-(((6-Chloro-2-(trifluoromethyl)quinolin-4-yl)amino)methyl)-3-(3-fluorophenyl)azetidine-1-sulfonamide]
19 | 0.1 to 100 | 0.1 to 100 | 0.1 to 100 | NS(=O)(=O)N1CC(CNc2cc(C(F)(F)F)nc3ccc(Cl)cc23)(c2ccc(F)cc2)C1 [Example 32, 3-(((6-Chloro-2-(trifluoromethyl)quinolin-4-yl)amino)methyl)-3-(4-fluorophenyl)azetidine-1-sulfonamide]
20 | 0.1 to 100 | 0.1 to 100 | 0.1 to 100 | NC(=O)N1CC(CNc2cc(C(F)(F)F)nc3ccc(Cl)cc23)(n2cc(Cl)cn2)C1 [Example 37, 3-(4-Chloro-1H-pyrazol-1-yl)-3-(((6-chloro-2-(trifluoromethyl)quinolin-4-yl)amino)methyl)azetidine-1-carboxamide]
21 | 0.1 to 100 | 0.1 to 100 | 0.1 to 100 | NS(=O)(=O)N1CC(CNc2cc(C(F)(F)F)nc3ccc(Cl)cc23)(c2ccccc2)C1 [Example 38, 3-(((6-Chloro-2-(trifluoromethyl)quinolin-4-yl)amino)methyl)-3-phenylazetidine-1-sulfonamide]
22 | 0.1 to 100 | 0.1 to 100 | 0.1 to 100 | NC(=O)N1CC(CNc2cc(C(F)(F)F)nc3ccc(Cl)cc23)(n2cc(Br)cn2)C1 [Example 41, 3-(4-Bromo-1H-pyrazol-1-yl)-3-(((6-chloro-2-(trifluoromethyl)quinolin-4-yl)amino)methyl)azetidine-1-carboxamide]
23 | 0.1 to 100 | 0.1 to 100 | 0.1 to 100 | NS(=O)(=O)N1CC(CNc2cc(C(F)(F)F)nc3ccc(Cl)cc23)(c2ncccc2F)C1 [Example 43, 3-(((6-Chloro-2-(trifluoromethyl)quinolin-4-yl)amino)methyl)-3-(3-fluoropyridin-2-yl)azetidine-1-sulfonamide]
24 | 0.1 to 100 | 0.1 to 100 | 0.1 to 100 | CNC(=O)N1CC(CNc2cc(C(F)(F)F)nc3ccc(Cl)cc23)(n2cc(F)cn2)C1 [Example 44, 3-(((6-Chloro-2-(trifluoromethyl)quinolin-4-yl)amino)methyl)-3-(4-fluoro-1H-pyrazol-1-yl)-N-methylazetidine-1-carboxamide]
25 | 0.1 to 100 | 0.1 to 100 | 0.1 to 100 | O=C1CCC(CNc2cc(C(F)(F)F)nc3ccc(Cl)cc23)(c2ccccc2)N1 (stereo not drawn) [Example 45, 5-(((6-Chloro-2-(trifluoromethyl)quinolin-4-yl)amino)methyl)-5-phenylpyrrolidin-2-one]
